# Assay results from patent US7261906B2, “Anti-cancer therapy agent of arsenic hexoxide (As4O6) of a natural chemical substance and its pharmaceutical composition” (priority 1998, dated 2007).
# “And” between values parts separate entries of the source, which are not always exact repeats. Equal values may be shown once. Marks after values point to notes of the source that are not given here.
# How the values were obtained:
# 3T3-fibroblast cells = assay: Cytotoxicity in 3T3-fibroblast cells, time course (XTT method); assay type: cell-based, murine
# Method: (§1) Cloned tumor cells of P388 leukemia, L1210 leukemia, L5178Y lymphoma, Colon26-M3.1 carcinoma, and B16-BL6 melanoma, from mice, and K562 leukemia, liver carcinoma HEP-G2, Hs578T breast cancer, AN-3-CA adenocarcinoma, DLD colon carcinoma, and HeLa epitheloid carcinoma, from human beings, were cultured in EMM, DMEM, or RMPI-1640 culture media containing 7.5% fetal bovine serum (FBS), as described in ATCC manual. […] Tumor cells in test wells were incubated in 5% CO2 incubator at 37° C. for 2 days.
# For further study of the cytotoxicity of each substance on cloned tumor cells, 3T3-fibroblast cells were cultured in test wells as described in experiment 1.
# B16-BL6 melanoma = assay: Neovascularization and tumor size after intradermal melanoma injection; assay type: in vivo, C57BL/6 mice; settings: one milligram orally three days after tumor injection
# Method: The in vivo mechanism of anticancer effect of HD-2 was studied in mice. After suspending 4×10^5 cells of B16-BL6 melanoma in 50% PBS, they were injected intradermally into 2 sites on the back of 6- to 7-week old C57BL/6 mice. Three days after the tumor injection, one milligram of HD-2 was given orally and size of inoculated melanoma and number of blood vessels at and around tumor sites were measured. Control group was treated with oral administration of PBS.
# [1] = tested on: colon26-M3.1 carcinoma cells; assay: Inhibitory effect of intravenously-administered HD-2 on cancer metastasis (lung); assay type: in vivo, mice
# Method: (§2) B16-BL6 melanoma cells or colon26-M3.1 carcinoma cells were inoculated into mice and number of metastatic tumor masses appearing in lungs was counted. […] The peak activity was observed a: 1-mg dose with very high anticancer efficacy (86%). […] This indicated oral administration of HD-2 was quite effective for treatment of established cancer.
# In this experiment, HD-2 was administered intravenously with dosage less than 500 mg/kg body weight per day.
# [2] = Subacute toxicity, oral administration once a day for 4 weeks; assay type: in vivo, Rats (Sprague Dawley strain); settings: for ALT / ALB / AST / BUN / CHOL / CREAT / Ca / GLU / TB / TG / TP: female rats
# Method: The subacute toxicity of oral administration of HD-2 was evaluated according to toxicity assessment criteria described in Article 96-8 of Notice on rood and Drug Safety (Apr. 16, 1994). Rats (Sprague Dawley . strain) were used for experiments, as was the case for acute toxicity experiments. […]
# Following items were observed during the period of study. • 1) General symptoms: General symptoms, such as anorchism, salivation, diarrhea, vomiting, polyuria, anuria, and fecal change and the severity of these symptoms were evaluated once a day during the study period. • 2) Food consumption: Twice a week, the amount of consumed food and the remaining amount were checked per cage. • 3) Water consumption: Twice a week, the amount of consumed water and the remaining amount were checked per cage. • 4) Weight: Weights were measured twice a week until the end of the study. • 5) Urinalysis: Urine samples were collected during study period from 5 randomly selected rats per study subgroup and appearance, volume, and colors were recorded. Using urinalysis kits (N-multistix of Amersham), pH, gravity, leukocyte, protein, ketone body, urobilinogen, glucose and blood urea nitrogen were measured. • 6) Eye examination: Ophthalmoscopic examination of 5 randomly selected rats per study subgroup was performed to evaluate the external appearance, cornea, and:fundus of the eye. • 7) Hematological and biochemical analysis: Routine blood test was done to measure red blood cell count, white blood cell count, hemoglobin concentration, number of monocytes and lymphocytes, and blood coagulation time. Biochemical analysis of serum was done to measure the activity of […], aspartate transaminase, alkaline phosphate, and albumin. • 8) Size and weight of organs: For every animal studied, weight and size of major organs were measured relative to body weight. Measured organs included liver, kidney, spleen, heart, adrenal gland, brain, thyroid gland, ovary, and testis. • 9) Pathological examination: Organs were fixed in formalin after measurement of weight and size and fixed tissues were cut into […] slices using microtome (AO Rotate Microtome) and stained with hematoxylin and eosin for microscopic study.
# B16-BL6 melanoma cells = assay: Inhibitory effect of orally-administered HD-2 on cancer metastasis (lung); assay type: in vivo, mice
# Description: as §2
# [3] = tested on: cloned tumor cells of mice and human beings; assay: Direct cytotoxicity of HD-2 relative to cisplatin over the clones; assay type: cell-based; settings: 48 hours of incubation, mean over clones of Table 5
# Method: as §1
# [4] = 1 μg intravenous administration +1
# [5] = 10 μg intravenous administration +1
# [6] = 10 μg intravenous administration +7
# [7] = 100 μg intravenous administration +1
smiles,measurement,setting,value
"O1[As]2O[As]3O[As]1O[As](O2)O3 [HD-2, arsenic hexoxide (As4O6)]",morphological observation of cells,"3T3-fibroblast cells; 3T3, 34 hours of treatment",complete necrosis of tumor cells
same,"cytotoxicity, times as high as that of cisplatin","3T3-fibroblast cells; 3T3, 48 hours after administration",about 270 times
same,cytotoxic effect over time (FIG. 3),"3T3-fibroblast cells; 3T3, time course after the addition, XTT",demonstrated cytotoxic effect starting from 4 hours
same,size of solid tumor mass,B16-BL6 melanoma,decreased significantly
same,number of new blood vessels at and around tumor sites,B16-BL6 melanoma; FIG. 5,tended to decrease
same,inhibitory rate,[1]; [4],66.5%
same,"number of metastatic mass, mean ± SD",[1]; [4],52 ± 28
same,inhibitory rate,[1]; [5],92.9%
same,"number of metastatic mass, mean ± SD",[1]; [5],11 ± 19
same,inhibitory rate,[1]; [6],67.5%
same,"number of metastatic mass, mean ± SD",[1]; [6],50 ± 11
same,inhibitory rate,[1]; [7],90.3%
same,"number of metastatic mass, mean ± SD",[1]; [7],15 ± 15
same,anti-metastatic efficacy,[1]; 10- to 100-μg intravenous,above 90%
same,ALT,[2]; High 100 mg/kg/day oral,29.67 μ/l
same,ALB,[2]; High 3.0 g/kg/day oral,3.33 g/dL
same,AST,[2]; High 3.0 g/kg/day oral,77.87* μ/l
same,BUN,[2]; High 3.0 g/kg/day oral,13.13 mg/dL
same,CHOL,[2]; High 3.0 g/kg/day oral,44.33 mg/dL
same,CREAT,[2]; High 3.0 g/kg/day oral,0.47 mg/dL
same,Ca,[2]; High 3.0 g/kg/day oral,8.73 mg/dL
same,GLU,[2]; High 3.0 g/kg/day oral,63.03 mg/dL
same,TB,[2]; High 3.0 g/kg/day oral,0.18 mg/dL
same,TG,[2]; High 3.0 g/kg/day oral,62.33 mg/dL
same,TP,[2]; High 3.0 g/kg/day oral,5.93 g/dL
same,ALB,[2]; Low 0.03 g/kg/day oral,3.60 g/dL
same,ALT,[2]; Low 0.03 g/kg/day oral,27.10 μ/l
same,AST,[2]; Low 0.03 g/kg/day oral,70.10* μ/l
same,BUN,[2]; Low 0.03 g/kg/day oral,11.43 mg/dL
same,CHOL,[2]; Low 0.03 g/kg/day oral,42.33 mg/dL
same,CREAT,[2]; Low 0.03 g/kg/day oral,0.40 mg/dL
same,Ca,[2]; Low 0.03 g/kg/day oral,8.77 mg/dL
same,GLU,[2]; Low 0.03 g/kg/day oral,67.70 mg/dL
same,TB,[2]; Low 0.03 g/kg/day oral,0.14 mg/dL
same,TG,[2]; Low 0.03 g/kg/day oral,50.00 mg/dL
same,TP,[2]; Low 0.03 g/kg/day oral,6.27 g/dL
same,ALB,[2]; Medium 0.3 g/kg/day oral,3.70 g/dL
same,ALT,[2]; Medium 0.3 g/kg/day oral,27.00 μ/l
same,AST,[2]; Medium 0.3 g/kg/day oral,87.53 μ/l
same,BUN,[2]; Medium 0.3 g/kg/day oral,13.18 mg/dL
same,CHOL,[2]; Medium 0.3 g/kg/day oral,40.50 mg/dL
same,CREAT,[2]; Medium 0.3 g/kg/day oral,0.53 mg/dL
same,Ca,[2]; Medium 0.3 g/kg/day oral,8.95 mg/dL
same,GLU,[2]; Medium 0.3 g/kg/day oral,70.00 mg/dL
same,TB,[2]; Medium 0.3 g/kg/day oral,0.16 mg/dL
same,TG,[2]; Medium 0.3 g/kg/day oral,56.25 mg/dL
same,TP,[2]; Medium 0.3 g/kg/day oral,6.53 g/dL
same,kidney pathology: hemosiderin in and atrophy of proximal tubular epithelium,"[2]; high-dose group (100 mg/kg body weight), 4 weeks",observed to a slight degree
same,kidney pathology,"[2]; medium-dose group, 4 weeks",no such pathology was observed
same,Hematological and biochemical study vs control groups,"[2]; oral, once a day for 4 weeks",did not reveal any significant difference
same,clinical symptoms incl. changes in weight and consumption of food and water,"[2]; oral, once a day for 4 weeks",no specific clinical symptom
same,urinalysis and eye examination,"[2]; oral, once a day for 4 weeks",any significant abnormality was not observed
same,fatal cases,"[2]; oral, once a day for 4 weeks, 1, 10, 100 mg per kg body weight",fatal cases were not observed
same,inhibitory rate,B16-BL6 melanoma cells; 0.1 mg oral administration +1,38.5%
same,"number of metastatic masses, mean ±SD",B16-BL6 melanoma cells; 0.1 mg oral administration +1,75 ± 28
same,inhibitory rate,B16-BL6 melanoma cells; 0.1 mg oral administration +7,41.4%
same,"number of metastatic masses, mean ±SD",B16-BL6 melanoma cells; 0.1 mg oral administration +7,95 ± 23
same,inhibitory rate,B16-BL6 melanoma cells; 1 mg oral administration +1,86% and 86.1%
same,"number of metastatic masses, mean ±SD",B16-BL6 melanoma cells; 1 mg oral administration +1,17 ± 9
same,inhibitory rate,B16-BL6 melanoma cells; 1 mg oral administration +7,70% and 70.4%
same,"number of metastatic masses, mean ±SD",B16-BL6 melanoma cells; 1 mg oral administration +7,48 ± 19
same,inhibitory rate,B16-BL6 melanoma cells; 10 mg oral administration +1,63.1%
same,inhibitory rate,B16-BL6 melanoma cells; 10 mg oral administration +7,66.1%
same,"number of metastatic masses, mean ±SD",B16-BL6 melanoma cells; 10 mg oral administration +7,55 ± 13
same,"number of metastatic masses, mean ±SD",B16-BL6 melanoma cells; 10 mg oral administration +1 day after inoculation,45 ± 25
same,anti-metastatic effect compared to the control group,"B16-BL6 melanoma cells; oral administration, 0.1 to 10 mg",significant anti-metastatic effect
same,"direct cytotoxicity, times as high as cisplatin",[3],50 times
